The results in this text go back to PubChem BioAssay AID434987 (Southern Research Specialized Biocontainment Screening …, 2010).

The source made the active and inactive calls. The rule behind the calls is not given here.

The test system of this experiment is M. tuberculosis H37Rv growth inhibition with meropenem. Put plainly: dose response, H37Rv, with and without meropenem (AID 434987).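 Note: growth over 7 days at 37 °C before Alamar Blue read on day 9.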
Where [1] appears, read: M. tuberculosis H37Rv growth inhibition, measured here: IC50 without meropenem.
The mark [2] stands for this setting: M. tuberculosis H37Rv growth inhibition, measured here: IC90 without meropenem.
The mark [3] stands for this setting: measured here: IC90 with meropenem.

Usually IC50 stands for the concentration that inhibits the measured activity by half. Usually IC90 stands for the concentration at which the effect reaches the 90% level. A high value points to weaker potency.

In the case of `C=CCSc1nc2c(c(-c3ccsc3)c1C#N)CN(C)CC2`, the IC50 is 50.6 µM (inactive). For the same molecule, the IC50 under setting [1] came to 65.7 µM. Further, the IC90 under setting [2] was above 100 µM. Further, the IC90 under setting [3] came to 55.1 µM.

On to `CCOc1ccc2nc(SC3CC(=O)N(c4cccc(OC)c4)C3=O)sc2c1` (stereo not drawn), for which the IC50 is 23.5 µM (inactive). The molecule also came in with an IC50 under setting [1] of 44.2 µM. Also, under setting [2], the IC90 was 49.9 µM. Further, the IC90 under setting [3] stood at 25.7 µM.

As to `OC1C(O)C(O)C(O)C(O)C1O` (stereo not drawn), the IC50 was > 100 µM (inactive). In addition, the IC50 under setting [1] was above 100 µM. Further, the IC90 under setting [2] is above 100 µM. The IC90 under setting [3] is above 100 µM.

For `Cc1ccc(C)c(NC(=O)C2Cc3ccccc3CN2C(=O)OCc2ccccc2)c1` (stereo not drawn), the IC50 is 71.3 µM (inactive). Moreover, the IC50 under setting [1] turned out to be 91.3 µM. The same molecule came in with an IC90 under setting [2] above 100 µM. The IC90 under setting [3] is above 100 µM.

Take `Nc1c2c(nc3sc4c(c13)CCCC4)-c1ccccc1CC2`: the half-maximal inhibitory concentration (IC50) is 6.11 µM. Moreover, the IC50 under setting [1] is above 100 µM. Also, the IC90 under setting [2] is above 100 µM. The IC90 under setting [3] is above 100 µM.

On to `Cc1cc(C)cc(NC(=S)NN)c1`, for which the IC50 is 55.5 µM (inactive). In addition, the IC50 under setting [1] turned out to be 78.3 µM. In addition, the IC90 under setting [2] was above 100 µM. Under setting [3], the IC90 is above 100 µM.

Take `CNC(=O)COC(=O)c1ccccc1NC(=O)c1ccco1`: the IC50 is 35.1 µM (inactive). In addition, the IC50 under setting [1] came out at 47.1 µM. The IC90 under setting [2] is above 100 µM. This molecule showed an IC90 under setting [3] above 100 µM.

Take `CCCc1c(C)nc2c(OC)cccc2c1SCC(=O)O`: the IC50 is > 100 µM (inactive). Under setting [1], this molecule returned an IC50 above 100 µM. Moreover, under setting [2], the concentration for an effect of 90% (IC90) was above 100 µM. This molecule registered an IC90 under setting [3] above 100 µM.

As for `CCCCCCCN(C(=O)CCl)c1ccccc1C`, the IC50 is 4.49 µM. Under setting [1], this molecule came in with an IC50 of 11.8 µM. This molecule registered an IC90 under setting [2] of 37.3 µM. Besides, the 90% effect concentration (IC90) under setting [3] was 35.2 µM.

Regarding `Cc1ccc(C2=N/C(=C\c3cccc(F)c3)C(=O)O2)cc1`, the IC50 was 1.49 µM. Under setting [1], this molecule displayed an IC50 of 7.03 µM. The molecule also gave an IC90 under setting [2] of 79.6 µM. The same molecule had an IC90 under setting [3] of 4.02 µM.

Take `CN(C)c1ccc(/C=N/NC(N)=S)cc1[N+](=O)[O-]`: the IC50 was 19.9 µM. The IC50 under setting [1] is above 100 µM. In addition, the IC90 under setting [2] is above 100 µM. Under setting [3], this molecule yielded an IC90 above 50 µM.

For `COC(=O)c1sc(-c2ccc(Cl)cc2)cc1NC(=O)COCC(=O)O`, the IC50 was 15.2 µM. The molecule further returned a half-maximal inhibitory concentration (IC50) under setting [1] of 39.5 µM. For the same molecule, the 90% effect concentration (IC90) under setting [2] was above 100 µM. Under setting [3], the IC90 was found to be 44.8 µM.

In the case of `CC(C)CCN1CC(O)=C(c2nc3ccccc3[nH]2)C1=N`, the IC50 was 6.68 µM. Under setting [1], this molecule registered an IC50 of 73 µM. This molecule displayed an IC90 under setting [2] above 100 µM. This molecule also registered a 90% effect concentration (IC90) under setting [3] above 100 µM.

For the molecule `CC(/C=N/NC(=O)c1cc(C(C)(C)C)[nH]n1)=C\c1ccccc1`, the IC50 was > 100 µM (inactive). In addition, the IC50 under setting [1] was above 100 µM. Under setting [2], this molecule gave an IC90 above 100 µM. The molecule further displayed an IC90 under setting [3] above 100 µM.

Regarding `COc1cccc(-c2nnn(CC(=O)Nc3cc(OC)c(NC(=O)c4ccco4)cc3OC)n2)c1`, the IC50 is 31.2 µM. Further, the IC50 under setting [1] was above 100 µM. In addition, under setting [2], the IC90 is above 100 µM. Under setting [3], this molecule returned an IC90 above 100 µM.

For the molecule `Cc1ccc(Cn2c(C(C)Nc3nc(-c4ccc(Cl)cc4)cs3)nc3cc(C(=O)NCCCO)ccc32)cc1` (stereo not drawn), the IC50 was 73.5 µM (inactive). Under setting [1], this molecule came in with an IC50 of 67.3 µM. The molecule also gave an IC90 under setting [2] of 86.4 µM. Moreover, the concentration for an effect of 90% (IC90) under setting [3] was above 100 µM.

In the case of `c1ccc(Nc2ncnc3c2oc2ccccc23)cc1`, the IC50 is 2 µM. Moreover, the IC50 under setting [1] was above 100 µM. This molecule had an IC90 under setting [2] above 100 µM. Also, under setting [3], the concentration for an effect of 90% (IC90) was above 100 µM.

Consider `Cc1ccccc1NC(=O)/C(C#N)=C\c1cc(C)n(-c2ccc(C(=O)O)cc2)c1C`, for which the IC50 was 21 µM (inactive). Under setting [1], this molecule yielded an IC50 of 46.8 µM. Moreover, the concentration for an effect of 90% (IC90) under setting [2] worked out at 76.7 µM. Further, under setting [3], the concentration for an effect of 90% (IC90) came out at 51.1 µM.

For the molecule `CCC(C)NCCOCCOc1ccc(Cl)c2ccccc12` (stereo not drawn), the IC50 is 32 µM (inactive). For the same molecule, the half-inhibitory concentration (IC50) under setting [1] was 38.3 µM. Under setting [2], this molecule yielded an IC90 of 53.3 µM. The molecule also registered a concentration for an effect of 90% (IC90) under setting [3] of 50.7 µM.

On to `COc1ccc(C2c3c(C)nn(-c4ccccc4)c3NC(=O)N2c2ccccc2)cc1` (stereo not drawn), for which the IC50 was 17.4 µM. The molecule further displayed an IC50 under setting [1] above 100 µM. This molecule also gave an IC90 under setting [2] above 100 µM. Under setting [3], the IC90 was above 100 µM.

Regarding `CCOC(=O)c1cnn(-c2ncnc3sc4c(c23)CCC4)c1N`, the IC50 is 23.6 µM. This molecule came in with an IC50 under setting [1] above 100 µM. Moreover, the IC90 under setting [2] was above 100 µM. Under setting [3], this molecule came in with an IC90 above 50 µM.

Regarding `COC(=O)c1cnn(-c2ccccc2)c1/C=N/NC(=S)Nc1ccc(Cl)cc1`, the IC50 is 33.1 µM. The IC50 under setting [1] was above 100 µM. This molecule showed an IC90 under setting [2] above 100 µM. This molecule also had an IC90 under setting [3] above 100 µM.
